What was measured:
[1] = molecular target: T1, purified LasB protein from P. aeruginosa (Pseudomonas aeruginosa, UniProt P14756); experiment: Fluorometric assay to determine Ki (purified LasB, Abz-Ala-Gly-Leu-Ala-p-Nitro-Benzyl-Amide substrate); assay type: biochemical
T1 construct: purchased Merck or Charles River Laboratories
Protocol: (§1) Experiments were therefore conducted (1) to measure the potency of inhibition of compounds of the invention against purified Pseudomonas aeruginosa LasB enzyme and also experiments were conducted (2) to measure the ability of compounds of the invention to inhibit LasB-catalysed elastin degradation. The first assay uses a commercial fluorescent synthetic peptide and purified LasB enzyme. The LasB hydrolysis kinetics are measured allowing the determination of the IC50 and Ki of the inhibitors; the second is a more physiological assay using dialysed Pseudomonas aeruginosa supernatant as source of enzyme, plus its natural substrate Elastin. It is an “end point assay” that determines the percentage of LasB inhibition by each compound for one particular time point and inhibitor concentration. Technical details are described below:
This assay uses commercially available substrate (Abz-Ala-Gly-Leu-Ala-p-Nitro-Benzyl-Amide (Ex: 340 nm, Em: 415 nm) from Peptide International) and purified LasB protein from P. aeruginosa (provided by Merck or Charles River Laboratories). It is performed to determine LasB elastase activity and assess compound inhibition in 96-well plate format. All compounds of Formula (I) were assessed using the method described below.
Method: 10 to 140 ng/ml purified LasB is incubated with 250 μM Abz-Ala-Gly-Leu-Ala-p-Nitro-Benzyl-Amide in 50 mM Tris-HCl pH 7.4, 2.5 mM CaCl2), 0.01% of Triton X100 at 37° C. LasB activity (corresponding to fluorescence emission induced by substrate hydrolysis) is measured over 30 min at 37° C. with a fluorescence plate reader such as the Perkin Elmer Envision or similar. Different range of inhibitor concentrations are routinely assessed depending of inhibitor potency from 0.0016 to 200 μM (2-fold dilutions series) in order to determine IC50.
The equation used to calculate the Ki from IC50 is: Ki=IC50/(1+([S]/Km)) where [S]=250 μM and Km=214 μM.

[2] = molecular target: T2, LasB elastase activity of dialysed supernatant from P. aeruginosa PAO1 (Pseudomonas aeruginosa, UniProt P14756); experiment: Elastin Congo-Red assay to determine % inhibition (dialysed PAO1 supernatant); assay type: biochemical; conditions: read-out: Elastin hydrolysis % inhibition @ 25 μM inhibitor concentration
T2 construct: Culture supernatants are recovered by centrifugation and filtrated through a 0.22 μM filter; endogenous in cells; host or cells: P. aeruginosa strain PAO1, culture supernatant, filtered and dialysed
T2 sequence (P14756 198-498): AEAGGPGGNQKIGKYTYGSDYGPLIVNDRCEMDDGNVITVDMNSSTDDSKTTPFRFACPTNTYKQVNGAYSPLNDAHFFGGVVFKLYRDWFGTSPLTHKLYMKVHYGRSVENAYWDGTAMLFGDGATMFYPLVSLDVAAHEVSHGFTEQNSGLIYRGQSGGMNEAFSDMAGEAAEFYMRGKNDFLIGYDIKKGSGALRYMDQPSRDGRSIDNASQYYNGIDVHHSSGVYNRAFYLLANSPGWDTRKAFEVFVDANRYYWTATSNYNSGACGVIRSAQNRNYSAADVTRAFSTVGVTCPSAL
Protocol: as §1
The Elastin assay uses as source of enzyme dialysed supernatant from P. aeruginosa PAO1 and the Elastin Congo-Red as substrate. The natural LasB substrate, elastin, is complexed with the congo-red dye (Elastin Congo-Red, ECR). The elastolysis activity from the culture supernatant will degrade elastin and release the congo-red dye into the supernatant. This red dye release can be measured with a spectrophotometer.
Method: To determine LasB elastase activity and assess compound inhibition, an overnight culture of P. aeruginosa strain PAO1 is diluted in LB medium. After reaching an OD600nm of 0.6, this culture is diluted and incubated for additional 18-24 hours in a shaking incubator. Culture supernatants are recovered by centrifugation and filtrated through a […] filter. These supernatants are dialysed (filtration molecules <20 kDa) into a 50 mM Tris-HCl pH 7.4, 2.5 mM CaCl2 solution at 4° C. under agitation for 24 hours. Supernatant dialysed is then mixed volume/volume with the ECR suspension (20 mg/mL of ECR in 100 mM Tris-HCl pH 7.4 buffer supplemented with 1 mM CaCl2)) supplemented with Triton X100 (final concentration of 0.01%) in presence of DMSO (positive control) and/or different concentrations of compound (routinely 50 to 1.56 μM). As a negative control, the dialysed supernatant is replaced by Tris-HCl solution (50 mM Tris-HCl pH 7.4, 2.5 mM CaCl2). The mixed reaction is then incubated overnight in a 37° C. shaking incubator. The reaction supernatant is recovered by centrifugation and the release of congo-red is measured by its absorbance at 495 nm (OD495nm).
Percentage inhibition is determined using the following equation:
((OD495 nm value of positive control−OD495nm value of negative control)−(OD495nm value of treated supernatant−OD495nm value of negative control))/(OD495nm value of positive control−OD495nm value of negative control)×100.

T1 sequence (P14756 198-498): as above

In the case of `COc1cc2sc(CNC(=O)C3(CC(=O)[O-])Cc4cc(F)c(F)cc4C3)nc2cc1OCCC[N+](C)(C)CCO` [Example 21, 2-[5,6-difluoro-2-[[5-[3-[2-hydroxyethyl(dimethyl)ammonio]propoxy]-6-methoxy-1,3-benzothiazol-2-yl]methylcarbamoyl]indan-2-yl]acetate], the Ki [1] is reported as < 50 nM and the inhibition at 25 µM [2] is reported as > 80%.

With `COc1cc2sc(CNC(=O)C3(CC(=O)O)Cc4cc(F)c(F)cc4C3)nc2cc1C(=O)N1CCN(C)CC1` [Example 34, 2-[5,6-difluoro-2-[[6-methoxy-5-(4-methylpiperazine-1-carbonyl)-1,3-benzothiazol-2-yl]methylcarbamoyl]indan-2-yl]acetic acid] the Ki [1] was < 50 nM and the inhibition at 25 µM [2] was > 80%.

`COc1cc2sc(CNC(=O)C3(CC(=O)O)Cc4ccccc4C3)nc2cc1S(=O)(=O)N1CCC(N(C)C)CC1` [Example 46, 2-[2-[[5-[[4-(dimethylamino)-1-piperidyl]sulfonyl]-6-methoxy-1,3-benzothiazol-2-yl]methylcarbamoyl]indan-2-yl]acetic acid] showed a Ki [1] of 50 to 200 nM and an inhibition at 25 µM [2] of 60 to 80%.

`NC1CCN(S(=O)(=O)c2cccc3sc(CNC(=O)C4(CC(=O)O)Cc5ccccc5C4)nc23)C1` (stereo not drawn) [Example 6, 2-[2-[[4-(3-aminopyrrolidin-1-yl)sulfonyl-1,3-benzothiazol-2-yl]methylcarbamoyl]indan-2-yl]acetic acid] gave a Ki [1] of 50 to 200 nM and an inhibition at 25 µM [2] of 60 to 80%.

`NC(=O)c1cccc2sc(CNC(=O)C3(CC(=O)O)Cc4ccccc4C3)nc12` [Example 1, 2-[2-[(4-carbamoyl-1,3-benzothiazol-2-yl)methylcarbamoyl]indan-2-yl]acetic acid] was tested, and the Ki [1] was 200 to 10000 nM and the inhibition at 25 µM [2] was 10 to 60%.

In the case of `COc1cc2sc(CNC(=O)C3(CC(=O)[O-])Cc4cc(F)c(F)cc4C3)nc2cc1OCCC[N+]1(C)CCOCC1` [Example 15, 2-[5,6-difluoro-2-[[6-methoxy-5-[3-(4-methylmorpholin-4-ium-4-yl)propoxy]-1,3-benzothiazol-2-yl]methylcarbamoyl]indan-2-yl]acetate], the Ki [1] is reported as 50 to 200 nM and the inhibition at 25 µM [2] is reported as 60 to 80%.

In the case of `COc1cc2sc(CNC(=O)C3(CC(=O)O)Cc4cc(F)c(F)cc4C3)nc2cc1OCCN1CCOCC1` [Example 10, 2-[5,6-difluoro-2-[[6-methoxy-5-(2-morpholinoethoxy)-1,3-benzothiazol-2-yl]methylcarbamoyl]indan-2-yl]acetic acid], the Ki [1] is reported as < 50 nM and the inhibition at 25 µM [2] is reported as > 80%.

For `COc1cc2sc(CNC(=O)C3(CC(=O)O)Cc4ccccc4C3)nc2cc1C(=O)N1CCN(C)CC1` [Example 33, 2-[2-[[6-methoxy-5-(4-methylpiperazine-1-carbonyl)-1,3-benzothiazol-2-yl]methylcarbamoyl]indan-2-yl]acetic acid], the Ki [1] was < 50 nM and the inhibition at 25 µM [2] was 60 to 80%.

Work on `CN1CCN(CCOc2ccc3sc(CNC(=O)C4(CC(=O)O)Cc5ccccc5C4)nc3c2)CC1` [Example 25, 2-[2-[[5-[2-(4-methylpiperazin-1-yl)ethoxy]-1,3-benzothiazol-2-yl]methylcarbamoyl]indan-2-yl]acetic acid] yielded a Ki [1] of 200 to 10000 nM and an inhibition at 25 µM [2] of 60 to 80%.

`COc1cc2sc(CNC(=O)C3(CC(=O)O)Cc4ccccc4C3)nc2cc1C(=O)N1CCOC(CN(C)C)C1` (stereo not drawn) [Example 40, 2-[2-[[5-[2-[(dimethylamino)methyl]morpholine-4-carbonyl]-6-methoxy-1,3-benzothiazol-2-yl]methylcarbamoyl]indan-2-yl]acetic acid] showed a Ki [1] of 50 to 200 nM and an inhibition at 25 µM [2] of 60 to 80%.

`COc1cc2sc(CNC(=O)C3(CC(=O)[O-])Cc4ccccc4C3)nc2cc1C(=O)N1CCOC(C[N+](C)(C)C)C1` (stereo not drawn) [Example 41, 2-[2-[[6-methoxy-5-[2-[(trimethylammonio)methyl]morpholine-4-carbonyl]-1,3-benzothiazol-2-yl]methylcarbamoyl]indan-2-yl]acetate] showed a Ki [1] of 50 to 200 nM and an inhibition at 25 µM [2] of 60 to 80%.

For `CN1CCN(C(=O)COc2ccc3sc(CNC(=O)C4(CC(=O)O)Cc5ccccc5C4)nc3c2)CC1` [Example 24, 2-[2-[[5-[2-(4-methylpiperazin-1-yl)-2-oxo-ethoxy]-1,3-benzothiazol-2-yl]methylcarbamoyl]indan-2-yl]acetic acid], the Ki [1] was 200 to 10000 nM and the inhibition at 25 µM [2] was 60 to 80%.

`COc1cc2sc(CNC(=O)C3(CC(=O)O)Cc4ccccc4C3)nc2cc1C(=O)N1CCC(N(C)C)CC1` [Example 38, 2-[2-[[5-[4-(dimethylamino)piperidine-1-carbonyl]-6-methoxy-1,3-benzothiazol-2-yl]methylcarbamoyl]indan-2-yl]acetic acid] was tested, and the Ki [1] was 50 to 200 nM and the inhibition at 25 µM [2] was 60 to 80%.

Compound `COc1cc2sc(CNC(=O)C3(CC(=O)[O-])Cc4cc(F)c(F)cc4C3)nc2cc1C(=O)N1CC[N+](C)(C)CC1` [Example 35, 2-[2-[[5-(4,4-dimethylpiperazin-4-ium-1-carbonyl)-6-methoxy-1,3-benzothiazol-2-yl]methylcarbamoyl]-5,6-difluoro-indan-2-yl]acetate] has a Ki [1] of 50 to 200 nM and an inhibition at 25 µM [2] of 60 to 80%.

Work on `CN1CCN(C(=O)c2ccc3sc(CNC(=O)C4(CC(=O)O)Cc5ccccc5C4)nc3c2)CC1` [Example 27, 2-[2-[[5-(4-methylpiperazine-1-carbonyl)-1,3-benzothiazol-2-yl]methylcarbamoyl]indan-2-yl]acetic acid] yielded a Ki [1] of 50 to 200 nM and an inhibition at 25 µM [2] of 60 to 80%.

`COc1cc2sc(CNC(=O)C3(CC(=O)O)Cc4ccccc4C3)nc2cc1C(=O)N1CC(N(C)C)C1` [Example 36, 2-[2-[[5-[3-(dimethylamino)azetidine-1-carbonyl]-6-methoxy-1,3-benzothiazol-2-yl]methylcarbamoyl]indan-2-yl]acetic acid] was tested, and the Ki [1] was < 50 nM and the inhibition at 25 µM [2] was > 80%.

Work on `O=C(O)CC1(C(=O)NCc2nc3c(S(=O)(=O)N4CCCC4)cccc3s2)Cc2ccccc2C1` [Example 3, 2-[2-[(4-pyrrolidin-1-ylsulfonyl-1,3-benzothiazol-2-yl)methylcarbamoyl]indan-2-yl]acetic acid] yielded a Ki [1] of 50 to 200 nM and an inhibition at 25 µM [2] of 60 to 80%.

With `COc1cc2sc(CNC(=O)C3(CC(=O)[O-])Cc4ccccc4C3)nc2cc1C(=O)N1CC([N+](C)(C)C)C1` [Example 42, 2-[2-[[6-methoxy-5-[3-(trimethylammonio)azetidine-1-carbonyl]-1,3-benzothiazol-2-yl]methylcarbamoyl]indan-2-yl]acetate] the Ki [1] was 200 to 10000 nM and the inhibition at 25 µM [2] was 60 to 80%.

For `COc1cc2sc(CNC(=O)C3(CC(=O)O)Cc4cc(F)c(F)cc4C3)nc2cc1C(=O)N1CC(N(C)C)C1` [Example 37, 2-[2-[[5-[3-(dimethylamino)azetidine-1-carbonyl]-6-methoxy-1,3-benzothiazol-2-yl]methylcarbamoyl]-5,6-difluoro-indan-2-yl]acetic acid], the Ki [1] was < 50 nM and the inhibition at 25 µM [2] was > 80%.

Work on `COc1cc2sc(CNC(=O)C3(CC(=O)O)Cc4ccccc4C3)nc2cc1OCC(=O)N1CCN(C)CC1` [Example 8, 2-[2-[[6-methoxy-5-[2-(4-methylpiperazin-1-yl)-2-oxo-ethoxy]-1,3-benzothiazol-2-yl]methylcarbamoyl]indan-2-yl]acetic acid] yielded a Ki [1] of 50 to 200 nM and an inhibition at 25 µM [2] of 60 to 80%.

`COc1cc2sc(CNC(=O)C3(CC(=O)O)Cc4cc(F)c(F)cc4C3)nc2cc1OCC(=O)N1CCN(C)CC1` [Example 12, 2-[5,6-difluoro-2-[[6-methoxy-5-[2-(4-methylpiperazin-1-yl)-2-oxo-ethoxy]-1,3-benzothiazol-2-yl]methylcarbamoyl]indan-2-yl]acetic acid] was tested, and the Ki [1] was 50 to 200 nM and the inhibition at 25 µM [2] was 60 to 80%.

Reference: US20240016941A1, “COMBINATION THERAPY” (priority 2020, published 2024)
